According to paper PMC10004634 (PLOS ONE, 2023):

What was measured:
BTK = BTK (Homo sapiens, UniProt Q06187); assay: In vivo pharmacodynamics: BTK phosphorylation in TMD8 xenograft tumors (flow cytometry); design: endogenous in cells; host or cells: TMD8 tumour cells from subcutaneous xenografts in SCID mice; conditions: TMD8, mouse, 1 h after final administration, read-out: BTK phosphorylation inhibition rate in tumor
Protocol: One hour after the final dosing, mice underwent laparotomy under isoflurane anesthesia and were sacrificed by exsanguination; tumors were collected. After measuring the wet weight, each tumor was placed on a 70-μm cell strainer (BD Falcon, Franklin Lakes, NJ, USA) placed in one well of a six-well plate on ice. After adding an amount of precooled culture medium, tumor cells were detached. The cell suspension was transferred to a tube and centrifuged for 8 min at 400 × g. Supernatant was excluded by aspiration, and cells were resuspended in culture medium. The tumor suspension was diluted with culture medium to a cell density of 1.0 × 10^6 cells/mL and pipetted into a 96-well plate. […] Cells were incubated for a further 10 min. Fix Buffer 1 (BD Biosciences, Franklin Lakes, NJ, USA) was added to each well, and the plate was centrifuged for 8 min at 400 × g at room temperature; the supernatant was removed by decantation. Each sample was washed twice with Perm Wash Buffer (BD Biosciences) before the addition of rabbit monoclonal p-BTK antibody (Tyr-223) (Novus Biologicals, #NB100-79907) diluted 500-fold with Perm Wash Buffer and 30-min incubation in the dark at room temperature. Cells underwent two rounds of Perm Wash buffer washes and centrifugation before the addition of the secondary antibody (100 μL Alexa Fluor 488 [Fab’] 2 fragments of goat anti-rabbit IgG [H+L]; Thermo Fisher Scientific) diluted 5,000-fold with Perm Wash buffer. After a 30-min incubation in the dark at room temperature, cells were washed once more and suspended with Stain Buffer (BD Biosciences). Cytomics FC500 MPL and data analysis software CXP Analysis (both from Beckman Coulter K.K, Shizuoka, Japan) were used for flow cytometry analysis. A gate containing the cell population of interest was created in a forward scatter and side scatter dot plot. […] The 7-AAD-positive cell rate (%) and the mean fluorescent intensity of BTK phosphorylation in cells in the relevant gate were measured. […]

HUNK = biological target: T1, HUNK (Homo sapiens, UniProt P57058); assay: KINOMEscan binding assay; design: purchased Eurofins DiscoverX (KINOMEscan scanMAX service); conditions: 300 nM; read-out: inhibition of kinase binding (KINOMEscan)
T1 sequence (P57058 1-714): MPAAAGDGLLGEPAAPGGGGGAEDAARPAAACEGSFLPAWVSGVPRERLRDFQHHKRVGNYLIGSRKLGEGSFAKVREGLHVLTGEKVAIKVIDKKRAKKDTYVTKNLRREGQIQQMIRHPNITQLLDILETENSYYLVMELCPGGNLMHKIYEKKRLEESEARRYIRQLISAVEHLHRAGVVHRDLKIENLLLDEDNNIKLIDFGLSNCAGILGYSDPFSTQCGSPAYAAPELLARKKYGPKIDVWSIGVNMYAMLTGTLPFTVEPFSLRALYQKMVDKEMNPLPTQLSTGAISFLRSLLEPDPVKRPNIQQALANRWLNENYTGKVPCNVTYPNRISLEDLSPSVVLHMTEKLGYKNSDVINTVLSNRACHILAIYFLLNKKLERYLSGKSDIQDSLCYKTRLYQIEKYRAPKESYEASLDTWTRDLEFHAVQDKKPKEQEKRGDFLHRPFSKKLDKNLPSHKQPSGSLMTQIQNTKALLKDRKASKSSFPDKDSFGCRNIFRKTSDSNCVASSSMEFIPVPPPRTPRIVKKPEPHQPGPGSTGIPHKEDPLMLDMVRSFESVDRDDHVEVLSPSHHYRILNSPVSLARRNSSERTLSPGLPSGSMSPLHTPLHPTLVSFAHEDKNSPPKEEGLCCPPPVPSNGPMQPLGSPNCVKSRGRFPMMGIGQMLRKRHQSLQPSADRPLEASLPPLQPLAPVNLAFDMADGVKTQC

RIPK2 = RIPK2 (Homo sapiens, UniProt O43353); assay: KINOMEscan binding assay; conditions: 300 nM; read-out: inhibition of kinase binding (KINOMEscan)
Chain of RIPK2 (O43353 whole entry): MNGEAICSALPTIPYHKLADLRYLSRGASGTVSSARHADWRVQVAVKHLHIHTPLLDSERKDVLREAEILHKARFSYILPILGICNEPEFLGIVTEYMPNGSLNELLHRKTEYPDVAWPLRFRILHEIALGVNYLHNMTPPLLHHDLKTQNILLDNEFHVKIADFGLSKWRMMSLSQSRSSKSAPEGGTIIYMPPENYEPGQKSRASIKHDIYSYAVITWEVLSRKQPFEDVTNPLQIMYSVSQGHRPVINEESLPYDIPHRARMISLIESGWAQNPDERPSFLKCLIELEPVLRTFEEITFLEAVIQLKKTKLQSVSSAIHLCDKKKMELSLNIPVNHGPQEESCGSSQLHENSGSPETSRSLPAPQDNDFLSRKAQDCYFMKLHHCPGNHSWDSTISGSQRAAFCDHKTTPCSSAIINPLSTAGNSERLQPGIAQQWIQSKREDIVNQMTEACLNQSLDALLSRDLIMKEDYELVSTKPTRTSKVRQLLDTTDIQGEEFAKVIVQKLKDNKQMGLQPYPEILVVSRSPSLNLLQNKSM

Chain of BTK (Q06187 whole entry): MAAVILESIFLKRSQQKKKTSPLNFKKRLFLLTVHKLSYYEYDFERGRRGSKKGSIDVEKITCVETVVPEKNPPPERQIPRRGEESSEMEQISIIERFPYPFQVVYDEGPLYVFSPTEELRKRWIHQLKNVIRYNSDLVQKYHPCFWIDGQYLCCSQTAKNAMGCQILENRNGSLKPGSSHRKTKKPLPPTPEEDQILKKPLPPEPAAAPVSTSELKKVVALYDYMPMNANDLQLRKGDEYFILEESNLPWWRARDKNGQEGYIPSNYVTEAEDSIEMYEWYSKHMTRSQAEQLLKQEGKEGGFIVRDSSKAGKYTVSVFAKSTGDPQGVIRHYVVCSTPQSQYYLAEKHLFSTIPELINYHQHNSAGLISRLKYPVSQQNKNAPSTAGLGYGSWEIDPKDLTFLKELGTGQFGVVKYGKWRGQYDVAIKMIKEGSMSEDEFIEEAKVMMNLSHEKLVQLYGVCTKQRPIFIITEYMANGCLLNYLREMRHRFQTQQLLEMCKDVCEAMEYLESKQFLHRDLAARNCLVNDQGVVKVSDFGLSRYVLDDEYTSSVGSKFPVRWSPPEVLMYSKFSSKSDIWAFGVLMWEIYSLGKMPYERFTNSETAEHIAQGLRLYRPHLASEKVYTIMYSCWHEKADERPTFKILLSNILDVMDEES

CC#CC(=O)N1CC[C@@H](n2c(=O)n(-c3ccc(Oc4ccccc4)cc3)c3c(N)ncnc32)C1 [Tirabrutinib]
inhibition at 1 mg/kg (BTK; 1 mg/kg BID 21 days): 64% | inhibition at 3 mg/kg (BTK; 3 mg/kg BID 21 days): 79.2% | inhibition at 10 mg/kg (BTK; 10 mg/kg BID 21 days): 85.4% | inhibition at 0.3 µM (HUNK): 89% | inhibition at 0.3 µM (RIPK2): 67%
